Test results as given in the supplement of paper PMC10307832.

Tests used:
Assay in all cases: relative viability (nuclei count vs DMSO), 5 days (fraction); higher = more cells survive
XMD8-85 + Luminespib = compound: CN1CCN(CC1)C2=CC(=C(C=C2)NC3=NC=C4C(=N3)N(C5=CC=CC=C5C(=O)N4C)C)OC [XMD8-85] + CCNC(=O)c1noc(-c2cc(C(C)C)c(O)cc2O)c1-c1ccc(CN2CCOCC2)cc1 [Luminespib] (partner 0.01 µM)
Summary of the method: (§1)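 Dosing by pin tool came one day after lung cancer cell lines were seeded in 1536-well plates, using either one drug or a fixed anchor-drug dose plus five library-drug doses (not always all listed) in √10 steps. After 5 days, nuclei were counted on 4× images. Relative viability is treated-well nuclei count divided by vehicle-well nuclei count, and values are medians of duplicate plates.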

4EGI-1 + Decitabine = compound: O=C(O)C(Cc1ccccc1[N+](=O)[O-])=NNc1nc(-c2ccc(Cl)c(Cl)c2)cs1 (mixture of isomers) [4EGI-1] + Nc1ncn([C@H]2C[C@H](O)[C@@H](CO)O2)c(=O)n1 [Decitabine] (partner 2 µM)
Summary of the method: as §1

4EGI-1 + Trametinib = compound: O=C(O)C(Cc1ccccc1[N+](=O)[O-])=NNc1nc(-c2ccc(Cl)c(Cl)c2)cs1 (mixture of isomers) [4EGI-1] + CC(=O)Nc1cccc(-n2c(=O)n(C3CC3)c(=O)c3c(Nc4ccc(I)cc4F)n(C)c(=O)c(C)c32)c1 [Trametinib] (partner 0.02 µM)
Summary of the method: as §1

4EGI-1 + Linsitinib = compound: O=C(O)C(Cc1ccccc1[N+](=O)[O-])=NNc1nc(-c2ccc(Cl)c(Cl)c2)cs1 (mixture of isomers) [4EGI-1] + C[C@]1(O)C[C@@H](c2nc(-c3ccc4ccc(-c5ccccc5)nc4c3)c3c(N)nccn32)C1 [Linsitinib] (partner 1 µM)
Summary of the method: as §1

Row | Cell Line | relative viability (XMD8-85 + Luminespib; first compound 0.08 µM) | relative viability (XMD8-85 + Luminespib; first compound 0.253 µM) | relative viability (XMD8-85 + Luminespib; first compound 0.8 µM) | relative viability (XMD8-85 + Luminespib; first compound 2.53 µM) | relative viability (XMD8-85 + Luminespib; first compound 8 µM) | relative viability (4EGI-1 + Decitabine; first compound 0.5 µM) | relative viability (4EGI-1 + Decitabine; first compound 5 µM) | relative viability (4EGI-1 + Decitabine; first compound 15.81 µM) | relative viability (4EGI-1 + Decitabine; first compound 50 µM) | relative viability (4EGI-1 + Trametinib; first compound 0.5 µM) | relative viability (4EGI-1 + Trametinib; first compound 5 µM) | relative viability (4EGI-1 + Trametinib; first compound 15.81 µM) | relative viability (4EGI-1 + Trametinib; first compound 50 µM) | relative viability (4EGI-1 + Linsitinib; first compound 0.5 µM) | relative viability (4EGI-1 + Linsitinib; first compound 1.581 µM) | relative viability (4EGI-1 + Linsitinib; first compound 5 µM) | relative viability (4EGI-1 + Linsitinib; first compound 50 µM) | relative viability (4EGI-1 + Decitabine; first compound 1.581 µM) | relative viability (4EGI-1 + Trametinib; first compound 1.581 µM) | relative viability (4EGI-1 + Linsitinib; first compound 15.81 µM)
1 | PC-3 [JPC-3] | 0.725 | 0.805 | 0.663 | 0.82 | 0.543 | 0.95 | 0.771 | 0.498 | 0.53 | 0.82 | 0.621 | 0.399 | 0.47 | 0.96 | 0.862 | 0.96 | 0.889 | – | – | –
2 | NCI-H1915 | 0.807 | 0.764 | 0.49 | 0.47 | 0.448 | 0.27 | 0.259 | 0.247 | 0.215 | 0.367 | 0.308 | 0.289 | 0.245 | 1.12 | 0.779 | 1.06 | 0.861 | 0.226 | 0.234 | 1.07
3 | HCC-44 | 1.32 | 1.21 | 1.36 | 0.588 | 0.75 | 0.964 | 0.936 | 0.924 | 0.432 | 1.04 | 0.994 | 0.921 | 0.507 | 0.708 | 0.361 | 0.681 | 0.406 | 0.905 | 0.948 | 0.585
4 | LOU-NH91 | 0.413 | 0.31 | 0.326 | 0.523 | 0.309 | 0.841 | 0.815 | 0.658 | 0.686 | 0.812 | 0.764 | 0.704 | 0.724 | 1.11 | – | 0.97 | 0.665 | – | – | 0.543
5 | NCI-H1666 | 1 | 1.03 | 0.986 | 1.04 | 0.877 | 0.749 | 0.758 | 0.564 | 0.495 | 0.914 | 0.811 | 0.774 | 0.66 | 0.804 | 0.771 | 0.778 | 0.291 | 0.609 | 0.822 | 0.583
6 | NCI-H1395 | 0.784 | 0.603 | 0.731 | 0.684 | 0.482 | 0.746 | 0.817 | 0.695 | 0.515 | 1.34 | 1.06 | 1.1 | 0.7 | 1.29 | – | 1.52 | 0.534 | – | – | 0.874
7 | SK-MES-1 | 0.823 | 0.768 | 0.779 | 0.655 | 0.409 | 0.384 | 0.362 | 0.285 | 0.241 | 0.582 | 0.568 | 0.541 | 0.418 | 1.12 | 1.07 | 1.1 | 0.987 | 0.323 | 0.559 | 0.887
8 | EKVX | 0.911 | 0.905 | 0.588 | 0.877 | 0.876 | 0.386 | 0.371 | 0.276 | 0.319 | 0.436 | 0.351 | 0.239 | 0.268 | 1.12 | 0.859 | 0.964 | 0.882 | – | – | 0.755
9 | HOP-62 | 0.932 | – | 0.911 | 0.762 | 0.683 | 0.272 | 0.215 | 0.202 | 0.183 | 0.415 | 0.329 | 0.28 | 0.234 | 1.19 | – | 1.16 | 0.707 | 0.199 | 0.356 | 1.03
10 | NCI-H1734 | 0.176 | 0.173 | 0.213 | 0.205 | 0.151 | 0.569 | 0.519 | 0.463 | 0.29 | 0.73 | 0.684 | 0.761 | 0.483 | 0.948 | 0.866 | 0.991 | 0.529 | 0.535 | 0.521 | 1
11 | LCLC-103H | 0.96 | 0.941 | 0.864 | 1.12 | 0.704 | 0.778 | 0.688 | 0.666 | 0.458 | 0.684 | 0.626 | 0.581 | 0.465 | 1.09 | 0.994 | 0.955 | 0.887 | 0.733 | 0.634 | 1.03
12 | EMC-BAC-2 | 1.26 | 1.24 | 1.21 | 1.28 | 0.951 | 1.21 | 0.972 | 0.904 | 0.436 | 0.989 | 0.928 | 0.878 | 0.652 | 0.86 | 0.748 | 0.791 | 0.736 | – | – | 0.777
13 | COR-L23 | 0.504 | 0.589 | 0.963 | – | 0.487 | 0.473 | 0.474 | 0.291 | 0.171 | 0.898 | 0.628 | 0.415 | 0.16 | 1.05 | 0.814 | 0.918 | 0.162 | 0.343 | 0.336 | 0.492
14 | NCI-H460 | 0.0362 | 0.0282 | 0.0359 | 0.0262 | 0.0291 | 0.562 | 0.476 | 0.188 | 0.0663 | 0.245 | 0.109 | 0.133 | 0.018 | 0.777 | – | 1.07 | 0.0218 | 0.246 | 0.0821 | 0.182
15 | NCI-H1755 | 0.672 | 0.414 | 0.344 | 0.482 | 0.342 | 0.718 | 0.654 | 0.697 | 0.618 | 0.773 | 0.711 | 0.72 | 0.556 | 0.966 | 0.99 | 0.958 | 0.572 | 0.676 | 0.802 | 0.932
16 | NCI-H2087 | 0.182 | 0.167 | 0.159 | 0.118 | 0.175 | 0.376 | 0.258 | 0.218 | 0.158 | 0.212 | 0.234 | 0.2 | 0.126 | 0.983 | 0.983 | 1 | 0.307 | 0.338 | 0.2 | 0.66
